Measurements reported in patent US9113629B2, “4-amino-6-(4-substituted-phenyl)-picolinates and 6-amino-2-(4-substituted-phenyl)-pyrimidine-4-carboxylates and their use as herbicides” (DOW AGROSCIENCES LLC, priority 2013, dated 2015).
Read-outs that look alike come from different tables or passages of the source.

Tests used:
[1] = system: Key Grass and Sedge Weeds as well as Grass Crops; assay: Post-emergent Test II herbicidal activity (Table 6); format: in vivo; settings: post-emergence, 336 h
Procedure, shortened: (§1)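 Greenhouse post-emergent assay: seedlings (first/second true leaf) in Metro-Mix 360 were sprayed at 187 L/ha at a top rate plus twofold dilutions down to 1/16×; solvent-blank controls were included. Percent visual injury was read at 14 d.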

[2] = system: Key Broadleaf Weed and Crop Species; assay: Post-emergent Test II herbicidal activity (Table 5); format: in vivo; settings: post-emergence, 336 h, 14 days after application; for pest or weed control at 70 g/ha: application rate 70 g ai/ha; for pest or weed control at 140 g/ha: application rate 140 g ai/ha
Procedure, shortened: as §1

[3] = CYPES: yellow nutsedge (Cyperus esculentus), 70 g ai/ha, read-out: Visual Growth Reduction (%) 14 Days After Application, CYPES
[4] = CYPES: yellow nutsedge (Cyperus esculentus), 140 g ai/ha, read-out: Visual Growth Reduction (%) 14 Days After Application, CYPES
[5] = DIGSA: crabgrass (Digitaria sanguinalis), 70 g ai/ha, read-out: Visual Growth Reduction (%) 14 Days After Application, DIGSA
[6] = DIGSA: crabgrass (Digitaria sanguinalis), 140 g ai/ha, read-out: Visual Growth Reduction (%) 14 Days After Application, DIGSA
[7] = ECHCG: barnyardgrass (Echinochloa crus-galli), 70 g ai/ha, read-out: Visual Growth Reduction (%) 14 Days After Application, ECHCG
[8] = ECHCG: barnyardgrass (Echinochloa crus-galli), 140 g ai/ha, read-out: Visual Growth Reduction (%) 14 Days After Application, ECHCG
[9] = ORYSA: rice (Oryza sativa), crop, 70 g ai/ha, read-out: Visual Growth Reduction (%) 14 Days After Application, ORYSA
[10] = ORYSA: rice (Oryza sativa), crop, 140 g ai/ha, read-out: Visual Growth Reduction (%) 14 Days After Application, ORYSA
[11] = SETFA: giant foxtail (Setaria faberi), 70 g ai/ha, read-out: Visual Growth Reduction (%) 14 Days After Application, SETFA
[12] = SETFA: giant foxtail (Setaria faberi), 140 g ai/ha, read-out: Visual Growth Reduction (%) 14 Days After Application, SETFA
[13] = SORVU: grain sorghum (Sorghum vulgare), 70 g ai/ha, read-out: Visual Growth Reduction (%) 14 Days After Application, SORVU
[14] = SORVU: grain sorghum (Sorghum vulgare), 140 g ai/ha, read-out: Visual Growth Reduction (%) 14 Days After Application, SORVU
[15] = TRZSS (wheat, Triticum aestivum), crop, 70 g ai/ha, read-out: Visual Growth Reduction (%) 14 Days After Application, TRZSS
[16] = TRZSS (wheat, Triticum aestivum), crop, 140 g ai/ha, read-out: Visual Growth Reduction (%) 14 Days After Application, TRZSS
[17] = ZEAMX: maize, corn (Zea mays), crop, 70 g ai/ha, read-out: Visual Growth Reduction (%) 14 Days After Application, ZEAMX
[18] = ZEAMX: maize, corn (Zea mays), crop, 140 g ai/ha, read-out: Visual Growth Reduction (%) 14 Days After Application, ZEAMX
[19] = ABUTH: velvetleaf (Abutilon theophrasti), read-out: Visual Growth Reduction (%) 14 Days After Application, ABUTH
[20] = AMARE: redroot pigweed (Amaranthus retroflexus), read-out: Visual Growth Reduction (%) 14 Days After Application, AMARE
[21] = BRSNN: oilseed-rape, canola (Brassica napus), read-out: Visual Growth Reduction (%) 14 Days After Application, BRSNN
[22] = CHEAL: lambsquarters (Chenopodium album), read-out: Visual Growth Reduction (%) 14 Days After Application, CHEAL
[23] = EPHHL: wild poinsettia (Euphorbia heterophylla), read-out: Visual Growth Reduction (%) 14 Days After Application, EPHHL
[24] = HELAN: sunflower (Helianthus annuus), read-out: Visual Growth Reduction (%) 14 Days After Application, HELAN
[25] = VIOTR: wild pansy (Viola tricolor), read-out: Visual Growth Reduction (%) 14 Days After Application, VIOTR

Row | melting point | SMILES | pest or weed control at 70 g/ha [1, 3] | pest or weed control at 140 g/ha [1, 4] | pest or weed control at 70 g/ha [1, 5] | pest or weed control at 140 g/ha [1, 6] | pest or weed control at 70 g/ha [1, 7] | pest or weed control at 70 g/ha [2, 19] | pest or weed control at 140 g/ha [2, 19] | pest or weed control at 70 g/ha [2, 20] | pest or weed control at 140 g/ha [2, 20] | pest or weed control at 70 g/ha [2, 21] | pest or weed control at 140 g/ha [2, 21] | pest or weed control at 70 g/ha [2, 22] | pest or weed control at 140 g/ha [2, 22] | pest or weed control at 70 g/ha [2, 23] | pest or weed control at 140 g/ha [2, 23] | pest or weed control at 70 g/ha [2, 24] | pest or weed control at 140 g/ha [2, 24] | pest or weed control at 70 g/ha [2, 25] | pest or weed control at 140 g/ha [2, 25] | further results
1 | 159 to 161 °C | Nc1c(F)c(-c2ccc(Cl)c(F)c2)nc(C(=O)O)c1Cl [Compound 217] | 85 to 94% | 85 to 94% | 85 to 94% | 85 to 94% | 95 to 100% | 95 to 100% | 95 to 100% | 95 to 100% | 95 to 100% | 85 to 94% | 95 to 100% | 95 to 100% | 95 to 100% | 95 to 100% | 95 to 100% | 95 to 100% | 95 to 100% | 95 to 100% | 95 to 100% | pest or weed control at 140 g/ha [1, 8]: 95 to 100%; pest or weed control at 70 g/ha [1, 9]: 60 to 74%; pest or weed control at 140 g/ha [1, 10]: 75 to 84%; pest or weed control at 70 g/ha [1, 11]: 95 to 100%; pest or weed control at 140 g/ha [1, 12]: 95 to 100%; pest or weed control at 70 g/ha [1, 13]: 85 to 94%; pest or weed control at 140 g/ha [1, 14]: 85 to 94%; pest or weed control at 70 g/ha [1, 15]: 75 to 84%; pest or weed control at 140 g/ha [1, 16]: 75 to 84%; pest or weed control at 70 g/ha [1, 17]: 85 to 94%; pest or weed control at 140 g/ha [1, 18]: 95 to 100%
2 | 163 to 165 °C | COC(=O)c1nc(-c2ccc(Br)cc2F)nc(N)c1OC [Compound 35] | 95 to 100% | 95 to 100% | 45 to 59% | 85 to 94% | 30 to 44% | 95 to 100% | 95 to 100% | 75 to 84% | 95 to 100% | 95 to 100% | 95 to 100% | 95 to 100% | 95 to 100% | 95 to 100% | 95 to 100% | 95 to 100% | 95 to 100% | 85 to 94% | 95 to 100% | pest or weed control at 140 g/ha [1, 8]: 85 to 94%; pest or weed control at 70 g/ha [1, 9]: 0 to 29%; pest or weed control at 140 g/ha [1, 10]: 0 to 29%; pest or weed control at 70 g/ha [1, 11]: 0 to 29%; pest or weed control at 140 g/ha [1, 12]: 45 to 59%; pest or weed control at 70 g/ha [1, 13]: 45 to 59%; pest or weed control at 140 g/ha [1, 14]: 60 to 74%; pest or weed control at 70 g/ha [1, 15]: 30 to 44%; pest or weed control at 140 g/ha [1, 16]: 45 to 59%; pest or weed control at 70 g/ha [1, 17]: 95 to 100%; pest or weed control at 140 g/ha [1, 18]: 95 to 100%
3 | 172 to 174 °C | COC(=O)c1nc(-c2ccc(I)c(F)c2F)cc(N)c1Cl [Compound 129, Methyl 4-amino-3-chloro-6-(2,3-difluoro-4-iodophenyl)picolinate] |  |  |  |  |  | 95 to 100% | 95 to 100% | 95 to 100% | 95 to 100% | 85 to 94% | 95 to 100% | 95 to 100% | 95 to 100% | 95 to 100% | 95 to 100% | 75 to 84% | 85 to 94% | 95 to 100% | 95 to 100% | pest or weed control at 70 g/ha ([1]; Triticum aestivum, TRZSS (wheat), application rate 70 g ai/ha, read-out: Visual Growth Reduction (%) 14 Days After Application, TRZSS): 45 to 59%; pest or weed control at 140 g/ha ([1]; Triticum aestivum, TRZSS (wheat), application rate 140 g ai/ha, read-out: Visual Growth Reduction (%) 14 Days After Application, TRZSS): 45 to 59%; pest or weed control at 70 g/ha ([1]; CYPES: yellow nutsedge (Cyperus esculentus), application rate 70 g ai/ha, read-out: Visual Growth Reduction (%) 14 Days After Application, CYPES): 95 to 100%; pest or weed control at 70 g/ha ([1]; DIGSA: crabgrass (Digitaria sanguinalis), application rate 70 g ai/ha, read-out: Visual Growth Reduction (%) 14 Days After Application, DIGSA): 60 to 74%; pest or weed control at 140 g/ha ([1]; DIGSA: crabgrass (Digitaria sanguinalis), application rate 140 g ai/ha, read-out: Visual Growth Reduction (%) 14 Days After Application, DIGSA): 60 to 74%; pest or weed control at 70 g/ha ([1]; ECHCG: barnyardgrass (Echinochloa crus-galli), application rate 70 g ai/ha, read-out: Visual Growth Reduction (%) 14 Days After Application, ECHCG): 75 to 84%; pest or weed control at 140 g/ha ([1]; ECHCG: barnyardgrass (Echinochloa crus-galli), application rate 140 g ai/ha, read-out: Visual Growth Reduction (%) 14 Days After Application, ECHCG): 75 to 84%; pest or weed control at 70 g/ha ([1]; ORYSA: rice (Oryza sativa), application rate 70 g ai/ha, read-out: Visual Growth Reduction (%) 14 Days After Application, ORYSA): 0 to 29%; pest or weed control at 140 g/ha ([1]; ORYSA: rice (Oryza sativa), application rate 140 g ai/ha, read-out: Visual Growth Reduction (%) 14 Days After Application, ORYSA): 0 to 29%; pest or weed control at 70 g/ha ([1]; SORVU: grain sorghum (Sorghum vulgare), application rate 70 g ai/ha, read-out: Visual Growth Reduction (%) 14 Days After Application, SORVU): 95 to 100%; pest or weed control at 140 g/ha ([1]; SORVU: grain sorghum (Sorghum vulgare), application rate 140 g ai/ha, read-out: Visual Growth Reduction (%) 14 Days After Application, SORVU): 95 to 100%; pest or weed control at 70 g/ha ([1]; ZEAMX: maize, corn (Zea mays), application rate 70 g ai/ha, read-out: Visual Growth Reduction (%) 14 Days After Application, ZEAMX): 60 to 74%; pest or weed control at 140 g/ha ([1]; ZEAMX: maize, corn (Zea mays), application rate 140 g ai/ha, read-out: Visual Growth Reduction (%) 14 Days After Application, ZEAMX): 75 to 84%
